The conditions of experiment [1]: as alternative to corticosteroid and/or immunosuppressive drugs; cited from earlier work.
Experiment [2] deals with collagen synthesis in the lung (bleomycin-induced lung fibrosis). Nature of the experiment: Bleomycin-induced lung fibrosis: fractional synthesis of collagen (2H2O labeling, GC/MS of OHP). Type of experiment: in vivo, mice. Here is the method: Bleomycin administration induces at least a three fold increase in the fractional synthesis of OHP as measured by GC/MS. Inhibition or reversal of the fibrotic response is determined by a reduction in OHP synthesis when compared with the bleomycin-vehicle control.
Animals: Female C57BU6 mice, 10 weeks of age at the start of the study were used. Food and water were available ad lib for the study duration. Study groups are as stated in table 1.
Protocol: Bleomycin (Sigma-Aldrich) was dissolved in sterile saline at a concentration of 1.05 U/ml. 30 μl of the bleomycin solution or the same volume of vehicle (sham control) was installed into the trachea of female C57BI/6 mice by the trans-oral route to yield a dose of 1.5 U/kg of bleomycin. […] Label (8% ^2H2O in drinking water) and drug administration continued for the 2 week study duration.
On the day following the last drug administration, the mice were placed under heavy anesthesia and blood was collected via cardiac puncture. The lung was perfused with isotonic saline, removed and weighed. The lung was homogenized with a MiniBeadbeater-96™ (Biospec, Bartlesville, Okla.) bead mill, and the total volume of homogenate was determined. The homogenate was subjected to acetone precipitation in order to obtain the total tissue protein for OHP assessment. The proteins were hydrolyzed by incubation in HCl, dried under vacuum and then suspended in a solution of 50% acetonitrile, 50 mM K2HPO4 and pentafluorobenzyl bromide before incubation. Derivatives were extracted into ethyl acetate, and the top layer was removed and dried by vacuum centrifugation. […] The derivatized OHP was analyzed by GC/MS, performed in the negative chemical ionization mode. […] Incorporation of ^2H into OHP was calculated as the molar fraction of molecules with one excess mass unit above the natural abundance fraction (EM1). Fractional synthesis (f) of collagen was calculated as the ratio of the EM1 value in protein-bound OHP to the maximal value possible at the body ^2H2O enrichment present. […]

Experiment [3] deals with total collagen (OHP) content of the lung (bleomycin-induced lung fibrosis). Nature of the experiment: Bleomycin-induced lung fibrosis: total OHP content of lung by chloramine-t assay. The experiment is classed as in vivo, mice. Conditions: noscapine for 2 weeks after bleomycin 1.5 U/kg. On the procedure:
Protocol: Bleomycin (Sigma-Aldrich) was dissolved in sterile saline at a concentration of 1.05 U/ml. 30 μl of the bleomycin solution or the same volume of vehicle (sham control) was installed into the trachea of female C57BI/6 mice by the trans-oral route to yield a dose of 1.5 U/kg of bleomycin. […] Label (8% ^2H2O in drinking water) and drug administration continued for the 2 week study duration. […] In addition to the GC/MS analysis, the absolute amount of collagen in the samples was determined by a chloramine-t assay of total OHP, a well established colorimetric method for determining OHP content. Samples of the original homogenate (400 μl) were hydrolyzed (HCl, 500 μl), dried, re-suspended in 1 ml of assay buffer, and incubated overnight. 150 μl of the suspension was pipetted into wells of a 96 well plate. 75 μl of chloramine-t was added to the well and the plate was incubated at room temperature for 20 min. Dimethylaminobenzaldehyde (75 μl) was then added to each well. The plate was incubated at 60° C. for 15 min before being read on a microquant (Bio-Tek Instruments, Inc. MQX200) at 540 nm. OHP standards were prepared and analyzed with the samples. Results were analyzed using GraphPad Prism to interpolate values from the standard curve. […]

Experiment [4] deals with α-SMA positive lung cells (activated myofibroblasts). Kind of experiment: Bleomycin-induced lung fibrosis: histology of αSMA positive lung cells. Type of experiment: in vivo, mice. Conditions: relative to vehicle+bleomycin control; 2 weeks after bleomycin; FIG. 4. On the procedure: Protocol: Bleomycin (Sigma-Aldrich) was dissolved in sterile saline at a concentration of 1.05 U/ml. 30 μl of the bleomycin solution or the same volume of vehicle (sham control) was installed into the trachea of female C57BI/6 mice by the trans-oral route to yield a dose of 1.5 U/kg of bleomycin. […] Label (8% ^2H2O in drinking water) and drug administration continued for the 2 week study duration. […] The differentiation of fibroblastic cells into myofibroblasts which express α-smooth muscle actin (α-SMA) is a major process the development of fibrosis. αSMA is a well recognized indicator of activated myofibroblasts. A small sample (5 to 20 mg) of the lung was excised from the center of the left lobe, immediately fixed in formalin, and sent for histological examination (Premier Laboratory LLC, Longmont Colo., USA). Briefly, paraffin embedded slides were prepared from the formalin-fixed tissue and then stained using an antibody for αSMA. Prepared slides were scanned, photographed, and subsequently analyzed for the presence of αSMA positive cells using ImageScope software (Aperio Technologies Inc., Vista Ca). Statistics: An analysis of variance followed by a Dunnett's test for comparison with drug vehicle/bleomycin control was used to analyze the data (SigmaStat). Data were considered significant at p<0.05.

The test system of experiment [5] is collagen synthesis in the liver (ANIT-induced liver fibrosis). Kind of experiment: ANIT-induced liver fibrosis: fractional synthesis of collagen (2H2O labeling, GC/MS of OHP). Conditions: for amount of newly synthesized collagen in the liver: separate study. Type of experiment: in vivo, mice. The text has this:
Alpha-Naphthylisothiocyanate (ANIT) is a hepatotoxicant that damages biliary cells and hepatocytes. Prolonged exposure to ANIT induces bile duct hyperplasia and biliary fibrosis, as well as liver injury. ANIT is conjugated with glutathione in hepatocytes and secreted into the bile (reviewed in Xu, 2004). However, the ANIT-glutathione complexes are unstable and rapidly dissociate in the bile causing the hepatocytes to reuptake the drug. Recycling can continue for many rounds, delaying ANIT elimination and depleting glutathione. In addition to its direct cytotoxic effects, ANIT also induces a hepatic inflammatory response that contributes to the tissue injury. Chronic administration of ANIT to rodents results in a significant increase in liver collagen and is used as an animal model of liver fibrosis (Xu et al, 2004). […] Inhibition or reversal of the fibrotic response is determined by a reduction in collagen synthesis when compared with the ANIT-vehicle control.
Subjects: Female C57BU6 mice, 10 weeks of age at the start of the study were used. The animals were housed in groups of 5, under standard laboratory conditions, with food and water available ad lib. Study groups are as stated in table 2 (po signifies oral gavage).
Mice were fed a diet adulterated with 0.05% (w/w) ANIT or a control diet for two weeks in order to induce a fibrotic response in the liver. The mice were labeled with 8% ^2H2O (Spectra Stable Isotopes, Columbia, Md.) beginning on the day that ANIT administration began.
On the day following the last drug administration, mice were placed under heavy anesthesia, and the liver was perfused and removed. Liver tissue was homogenized with a MiniBeadbeater 96™ bead mill (Biospec, Bartlesville, Okla.) followed by acetone precipitation and vacuum drying. Proteins were hydrolyzed in 6 N HCl (110° C., 16 hours), dried under vacuum and suspended in 1 mL 50% acetonitrile, 50 mM K2HPO4, pH 11. Pentafluorobenzyl bromide was added before the sealed mixture was incubated (100° C.; 1 hour) and extracted into ethyl acetate. The top layer was removed and dried by addition of solid Na2SO4 followed by vacuum centrifugation. Samples were incubated with 50 μL methyl imidazole and 100 μL MTBSTFA, (100° C. for 30 min). The derivative was extracted in water/petroleum ether and dried with Na2SO4. Selected ion monitoring was at mass-to-charge ratios of 445, 446, and 447 for the OH-proline derivatives. Mole % excess M1 enrichment (EM1) and fractional synthesis (f) are calculated.
Statistics: An analysis of variance followed by a Dunnett's test for comparison with ANIT/vehicle control was used to analyze the data (SigmaStat). Data were considered significant at p<0.05.

For experiment [6], the system named is OHP content of the liver (ANIT-induced liver fibrosis). Nature of the experiment: ANIT-induced liver fibrosis: absolute amount of OHP in liver by chloramine-t assay. The experiment is classed as in vivo, mice. On the procedure:
Mice were fed a diet adulterated with 0.05% (w/w) ANIT or a control diet for two weeks in order to induce a fibrotic response in the liver. The mice were labeled with 8% ^2H2O (Spectra Stable Isotopes, Columbia, Md.) beginning on the day that ANIT administration began. […] In addition to the GC/MS analysis, the absolute amount of OHP in the samples was determined by a chloramine-t assay as described above for the bleomycin studies. Statistics: An analysis of variance followed by a Dunnett's test for comparison with ANIT/vehicle control was used to analyze the data (SigmaStat). Data were considered significant at p<0.05.

The test system of experiment [7] is liver collagen content (ANIT-induced liver fibrosis). Kind of experiment: ANIT-induced liver fibrosis: histological collagen content (Masson's Trichrome stain). Type of experiment: in vivo, mice. Conditions: noscapine administered with ANIT, FIG. 10. On the procedure: Mice were fed a diet adulterated with 0.05% (w/w) ANIT or a control diet for two weeks in order to induce a fibrotic response in the liver. The mice were labeled with 8% ^2H2O (Spectra Stable Isotopes, Columbia, Md.) beginning on the day that ANIT administration began. […] A small sample (75 to 80 mg) of the liver was excised from the lateral right lobe, immediately fixed in formalin, and sent for histological examination (Premier Laboratory LLC, Longmont Colo., USA). Briefly, paraffin embedded slides were prepared from the formalin-fixed tissue and then treated with Masson's Trichrome stain for collagen distribution. Prepared slides were scanned, photographed, and subsequently analyzed for collagen content using ImageScope software (Aperio Technologies Inc., Vista Ca). Statistics: An analysis of variance followed by a Dunnett's test for comparison with ANIT/vehicle control was used to analyze the data (SigmaStat). Data were considered significant at p<0.05.

For a further experiment, the system named is TGF-β signaling. Conditions: low concentrations of paclitaxel; nude mouse model of scleroderma; cited from earlier work.

Entries after “also recorded” stand apart in the source; their conditions may differ.

As for `COc1cc2c(c(OC)c1OC)-c1ccc(OC)c(=O)cc1[C@@H](NC(C)=O)CC2` [Colchicine, colchicine], the “safety and efficacy in the treatment of IPF” value in experiment [1] is reported as “safer, but not effective”.

As for `COc1ccc2c(c1OC)C(=O)O[C@@H]2[C@H]1c2c(cc3c(c2OC)OCO3)CCN1C` [noscapine], the “bleomycin-induced increase of collagen synthesis (fractional synthesis, percent labeled OHP, f)” value in experiment [2] (noscapine 300 mg/kg po (oral gavage) for 2 weeks from the day of bleomycin, FIG. 5) is “blocked the bleomycin-induced increase of collagen synthesis”; in experiment [2] (noscapine ip (10, 30, 100 mg/kg) for 2 weeks from the day of bleomycin 1.5 U/kg trans-oral, FIG. 1) it was “blocked the bleomycin-induced increase of collagen synthesis”. In addition, the “percent of newly synthesized collagen (% new OHP, f)” value in experiment [2] (noscapine in diet (2 g/kg food, approx. 300 mg/kg) for 2 weeks from the day of bleomycin, FIG. 6) is “tended to reduce the % new OH—P, but the effect was not statistically significant; also recorded: tended to reduce the percent of newly synthesized collagen”. The “total collagen (OHP) content of the lung” value in experiment [3] (chloramine-t assay, FIG. 2) is “blocked by noscapine in a dose related manner”. Further, the “absolute amount of newly synthesized collagen in the lung (f times total OHP content)” value in experiment [3] (FIG. 3) is reported as “significantly decreased”. Besides, in experiment [4], the “number of alpha smooth muscle actin (αSMA) positive cells in lung” value was “significantly reduced the number of myofibroblasts activated by bleomycin; also recorded: significantly decreased the number of alpha smooth muscle actin (αSMA) positive cells”. In addition, in experiment [5] (noscapine at 30 and 100 mg/kg po, p<0.05 vs ANIT/vehicle, FIG. 7), the “ANIT-induced elevation of new OHP (percent labeled OHP, f) in the liver” value is recorded as “significantly reduced the ANIT-induced elevation of OHP”. The “percent of newly synthesized collagen in the liver (percent labeled OHP, f)” value in experiment [5] (noscapine po (oral gavage) 10, 30, 100 mg/kg with 0.05% ANIT diet for 2 weeks, FIG. 7) is recorded as “dose dependently reduced the percent of newly synthesized collagen”. The “amount of newly synthesized collagen in the liver” value is “tended to decrease the amount of newly synthesized collagen” in experiment [5] (noscapine 300 mg/kg by oral gavage once per day with ANIT, FIG. 12) and “tended to decrease the amount of newly synthesized collagen” in experiment [5] (noscapine 300 mg/kg in the diet (2 g/kg food) with ANIT, FIG. 11). Also, in experiment [6] (chloramine-t assay, noscapine po with ANIT for 2 weeks, vs ANIT plus vehicle control, FIG. 8), the “total amount of OHP in the whole liver” value is reported as “significantly reduced the ANIT-induced elevation of OHP content”. In experiment [6] (noscapine at 30 and 100 mg/kg po, p<0.05 vs ANIT/vehicle, FIG. 9), the “ANIT-induced elevation of collagen synthesis, absolute (f x [OHP]) in the liver” value is “significantly reduced the ANIT-induced elevation of collagen synthesis”. The “amount of newly synthesized collagen in the whole liver (f x [OHP])” value in experiment [6] (noscapine po with ANIT for 2 weeks, vs ANIT plus vehicle control, FIG. 9) is “significantly reduced”. Also, the “histologically determined collagen content of liver” value in experiment [7] is given as “significantly decreased ANIT-induced collagen content; also recorded: significant decrease in collagen content”.

For `CC(=O)O[C@H]1C(=O)[C@@]2(C)[C@H]([C@H](OC(=O)c3ccccc3)[C@]3(O)C[C@H](OC(=O)[C@H](O)[C@@H](NC(=O)c4ccccc4)c4ccccc4)C(C)=C1C3(C)C)[C@]1(OC(C)=O)CO[C@@H]1C[C@@H]2O` [Paclitaxel, paclitaxel], in the experiment on TGF-β signaling, the “Smad2 and Smad3 phosphorylation in SSc grafts” value was “markedly suppressed Smad2 and Smad3 phosphorylation”; the “collagen deposition in SSc grafts” value is “decreased collagen deposition”.

The values are drawn from US20110288114A1, “COMPOSITIONS FOR THE TREATMENT OF FIBROTIC DISEASES OR CONDITIONS” (Kinemed, Inc., priority 2008, published 2011).
